These results are taken from patent publication US10093713B2, “GIP-GLP-1 dual agonist compounds and methods” (priority 2013, dated 2018).

Where two headings read alike, the source gives them in different places. *1 amine or outer side, *2 acyl side, *3 side chain or, on linkers, in order; H or OH if unused. Where a SMILES comes first, the peptide text is derived from it. Side-chain parts run from the residue outwards. [ ]: non-standard residue; d: D form. The star is where a group is joined. C20 diacid = O=C(O)CCCCCCCCCCCCCCCCCCC(=O)*; C18 diacid = O=C(O)CCCCCCCCCCCCCCCCC(=O)*; γGlu = O=C(O)[C@H](CCC(=O)[*:2])N[*:1]; AEEA = NCCOCCOCC(=O)O; Aib = CC(C)(N)C(=O)O

The EC50 is the concentration needed to bring the measured effect to its halfway point. The term half-life denotes how long it takes for the measured level to halve. Broadly, the bioavailability is dose-corrected exposure relative to a reference, in per cent. Read a low bioavailability as poor availability. By Tmax is commonly meant the time from dosing to the highest level.

One series deals with T1, human GIP R (Homo sapiens, UniProt P48546).
T1 construct: expressed in transfected cells
T1 sequence (P48546 22-466): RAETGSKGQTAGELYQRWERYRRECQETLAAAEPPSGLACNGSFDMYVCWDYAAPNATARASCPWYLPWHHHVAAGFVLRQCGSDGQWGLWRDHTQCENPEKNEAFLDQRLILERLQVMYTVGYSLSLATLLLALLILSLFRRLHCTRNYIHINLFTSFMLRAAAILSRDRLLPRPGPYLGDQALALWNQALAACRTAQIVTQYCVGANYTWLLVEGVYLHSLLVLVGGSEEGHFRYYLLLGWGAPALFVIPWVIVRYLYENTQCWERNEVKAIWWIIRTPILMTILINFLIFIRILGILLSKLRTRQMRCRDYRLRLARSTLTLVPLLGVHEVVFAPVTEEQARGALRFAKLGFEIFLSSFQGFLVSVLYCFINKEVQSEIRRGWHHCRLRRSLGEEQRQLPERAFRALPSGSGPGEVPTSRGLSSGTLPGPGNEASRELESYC
Nature of the series: Human GIP receptor (GIP R) activity assay, cAMP induction (AlphaScreen) in HEK293 cells. The following applies: read-out: hGIP-R cAMP EC50 average value. The format is cell-based. The method, boiled down: (§1)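 Stable HEK293 clones expressing human GIP R or GLP-1 R, seeded 1 day before; cells washed in Tyrode's buffer (10 mM HEPES, pH 7.4), stimulated, then lysed. cAMP measured by AlphaScreen bead competition (1 h, room temperature, dark). EC50 = concentration giving half-maximal cAMP elevation, from curves of absolute cAMP (nM) vs log concentration.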

Another series addresses T2, human GLP-1 R (Homo sapiens, UniProt P43220).
T2 construct: expressed in transfected cells
Nature of the series: Human GLP-1 receptor (GLP-1 R) activity assay, cAMP induction (AlphaScreen) in HEK293 cells. The format is cell-based. The method, boiled down: as §1
In general terms: In Alpha technology, singlet oxygen from a donor bead excites a nearby acceptor bead.

Series [1] is described as follows: Pharmacokinetics of selected compounds in mice. It is filed as in vivo, C57BL/6J mice. The following applies: male, C57BL/6J, mouse, plasma; for bioavailability: subcutaneous, AUCinf (s.c.)/AUCinf (i.v.)x100, values marked * capped to 100%. On the procedure:
Pharmacokinetics of Selected Compounds in Mice
C57BL/6J mice (males with a body weight of approximately 25 g) were given either a single subcutaneous (s.c.) bolus or a single intravenous (i.v.) bolus of each peptide to be tested.
Following s.c. administration of the selected compounds (50, 100 or 200 nmol/kg), blood samples were drawn at 8 (eight) timepoints up to 72 hours post-dose. Following i.v. administration of the selected compounds (50, 100 or 200 nmol/kg), blood samples were drawn at 8 (eight) timepoints up to 48 hours post-dose. Blood samples were drawn by sublingual bleeding. The dosing vehicle was a phosphate buffer containing mannitol (pH 7.5).
At each sampling time point, samples from two mice were drawn, i.e. 16 mice were included for each compound and each administration route. The mice were euthanized immediately after blood sampling by cervical dislocation. Plasma samples were analyzed after solid phase extraction (SPE) or protein precipitation followed by liquid chromatography mass spectrometry (LC-MS/MS). Mean plasma concentrations were used for calculation of the pharmacokinetic parameters using the non-compartmental approach in Phoenix WinNonlin 6.3. Plasma terminal elimination half-life (T½) was determined as […] where λz is the magnitude of the slope of the log linear regression of the log concentration versus time profile during the terminal phase. Bioavailability was determined as AUCinf (s.c.)/AUCinf (i.v.)×100, where AUCinf is the area under the plasma concentration−time curve extrapolated to infinity (AUCinf=AUClast+Clast/λz, where Clast is the last observed plasma concentration). Tmax is the post-dose time where the maximal plasma concentration was observed.

[2] abbreviates: Table 2, HEK293 cells expressing human GIP R.
The mark [3] stands for this setting: Table 2a, secondary assay study.
Setting [4] is: Table 3, most comprehensive data.
Setting [5] is: Table 2, HEK293 cells expressing human GLP-1 R, read-out: hGLP1-R cAMP EC50 average value.
Setting [6] is: Table 2a, secondary assay study, read-out: hGLP1-R cAMP EC50 average value.
Setting [7] is: Table 3, most comprehensive data, read-out: hGLP-1-R cAMP EC50 average value.
Setting [8] is: iv, single i.v. bolus, read-out: T½ terminal elimination half-life, i.v. (converted).
[9] abbreviates: sc, single s.c. bolus, read-out: T½ terminal elimination half-life, s.c. (converted).

T2 sequence (P43220 24-463): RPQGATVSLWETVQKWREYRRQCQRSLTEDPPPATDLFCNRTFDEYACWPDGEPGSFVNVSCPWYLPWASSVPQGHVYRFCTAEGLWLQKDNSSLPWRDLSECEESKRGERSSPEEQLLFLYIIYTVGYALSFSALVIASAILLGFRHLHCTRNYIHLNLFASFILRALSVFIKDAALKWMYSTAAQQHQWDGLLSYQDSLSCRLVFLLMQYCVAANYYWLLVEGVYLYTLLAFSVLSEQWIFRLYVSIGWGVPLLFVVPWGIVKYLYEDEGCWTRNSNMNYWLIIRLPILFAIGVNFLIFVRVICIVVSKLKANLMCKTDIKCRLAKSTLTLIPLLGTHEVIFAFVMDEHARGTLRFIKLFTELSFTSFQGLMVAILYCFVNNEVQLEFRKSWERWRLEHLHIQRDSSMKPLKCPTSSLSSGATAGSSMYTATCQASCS

Consider `CC[C@H](C)[C@H](NC(=O)[C@H](CO)NC(=O)[C@H](Cc1ccc(O)cc1)NC(=O)[C@H](CC(=O)O)NC(=O)[C@H](CO)NC(=O)[C@@H](NC(=O)[C@H](Cc1ccccc1)NC(=O)[C@@H](NC(=O)CNC(=O)[C@H](CCC(=O)O)NC(=O)C(C)(C)NC(=O)[C@@H](N)Cc1ccc(O)cc1)[C@@H](C)O)[C@@H](C)O)C(=O)N[C@@H](Cc1ccc(O)cc1)C(=O)N[C@@H](CC(C)C)C(=O)N[C@@H](CC(=O)O)C(=O)N[C@@H](CCCCN)C(=O)N[C@@H](CCCCNC(=O)COCCOCCNC(=O)COCCOCCNC(=O)CC[C@H](NC(=O)CCCCCCCCCCCCCCCCC(=O)O)C(=O)O)C(=O)N[C@@H](C)C(=O)N[C@@H](CCC(N)=O)C(=O)N[C@@H](CCCNC(=N)N)C(=O)N[C@@H](C)C(=O)N[C@@H](Cc1ccccc1)C(=O)N[C@H](C(=O)N[C@@H](CCC(=O)O)C(=O)N[C@@H](Cc1c[nH]c2ccccc12)C(=O)N[C@@H](CC(C)C)C(=O)N[C@@H](CC(C)C)C(=O)N[C@@H](C)C(=O)N[C@@H](CCC(N)=O)C(=O)NCC(=O)N1CCC[C@H]1C(=O)N[C@@H](CO)C(=O)N[C@@H](CO)C(=O)NCC(=O)N[C@@H](C)C(=O)N1CCC[C@H]1C(=O)N1CCC[C@H]1C(=O)N1CCC[C@H]1C(=O)N[C@@H](CO)C(N)=O)C(C)C` [Compound 1] (H-Y[Aib]EGTFTSDYSIYLDKK([AEEA-AEEA-γGlu-C18 diacid])AQRAFVEWLLAQGPSSGAPPPS-NH2), for which the half-maximal effective concentration (EC50) on human GIP R (setting [2]) turned out to be 0.0055 nM; on human GIP R (setting [3]), 0.006 nM; on human GIP R (setting [4]), 0.006 nM; on human GLP-1 R (setting [5]) it was 0.012 nM; on human GLP-1 R (setting [6]) it was 0.015 nM; at human GLP-1 R (setting [7]), 0.015 nM. The half-life in series [1] (setting [8]) is 10.8 h; in series [1] (setting [9]), 9.1 h. Further, in series [1], the bioavailability stood at 90%. For the same compound, the Tmax in series [1] (sc, single s.c. bolus) is 6 h.

Consider `CC[C@H](C)[C@H](NC(=O)[C@H](CO)NC(=O)[C@H](Cc1ccc(O)cc1)NC(=O)[C@H](CC(=O)O)NC(=O)[C@H](CO)NC(=O)[C@@H](NC(=O)[C@H](Cc1ccccc1)NC(=O)[C@@H](NC(=O)CNC(=O)[C@H](CCC(=O)O)NC(=O)C(C)(C)NC(=O)[C@@H](N)Cc1ccc(O)cc1)[C@@H](C)O)[C@@H](C)O)C(=O)N[C@@H](Cc1ccc(O)cc1)C(=O)N[C@@H](CC(C)C)C(=O)N[C@@H](CC(=O)O)C(=O)N[C@@H](CCCCN)C(=O)N[C@@H](CCCCNC(=O)COCCOCCNC(=O)COCCOCCNC(=O)CC[C@H](NC(=O)CCCCCCCCCCCCCCCCCCC(=O)O)C(=O)O)C(=O)N[C@@H](C)C(=O)N[C@@H](CCC(N)=O)C(=O)N[C@@H](CCCNC(=N)N)C(=O)N[C@@H](C)C(=O)N[C@@H](Cc1ccccc1)C(=O)N[C@H](C(=O)N[C@@H](CCC(=O)O)C(=O)N[C@@H](Cc1c[nH]c2ccccc12)C(=O)N[C@@H](CC(C)C)C(=O)N[C@@H](CC(C)C)C(=O)N[C@@H](C)C(=O)N[C@@H](CCC(N)=O)C(=O)NCC(=O)N1CCC[C@H]1C(=O)N[C@@H](CO)C(=O)N[C@@H](CO)C(=O)NCC(=O)N[C@@H](C)C(=O)N1CCC[C@H]1C(=O)N1CCC[C@H]1C(=O)N1CCC[C@H]1C(=O)N[C@@H](CO)C(N)=O)C(C)C` [Compound 2] (H-Y[Aib]EGTFTSDYSIYLDKK([AEEA-AEEA-γGlu-C20 diacid])AQRAFVEWLLAQGPSSGAPPPS-NH2), for which the EC50 on human GIP R (setting [2]) was determined as 0.0049 nM; on human GIP R (setting [3]), 0.008 nM; at human GIP R (setting [4]), 0.008 nM; at human GLP-1 R (setting [5]), 0.0083 nM; on human GLP-1 R (setting [6]), 0.011 nM; at human GLP-1 R (setting [7]), 0.011 nM. The half-life was 16.6 h in series [1] (setting [8]) and 16.5 h in series [1] (setting [9]). Besides, the bioavailability in series [1] turned out to be 83%. The Tmax in series [1] (sc, single s.c. bolus) was determined as 6 h.

For the compound `CC[C@H](C)[C@H](NC(=O)[C@H](CO)NC(=O)[C@H](Cc1ccc(O)cc1)NC(=O)[C@H](CC(=O)O)NC(=O)[C@H](CO)NC(=O)[C@@H](NC(=O)[C@H](Cc1ccccc1)NC(=O)[C@@H](NC(=O)CNC(=O)[C@H](CCC(=O)O)NC(=O)C(C)(C)NC(=O)[C@@H](N)Cc1ccc(O)cc1)[C@@H](C)O)[C@@H](C)O)C(=O)N[C@@H](C)C(=O)N[C@@H](CC(C)C)C(=O)N[C@@H](CC(=O)O)C(=O)N[C@@H](CCCCN)C(=O)N[C@@H](CCCCNC(=O)COCCOCCNC(=O)COCCOCCNC(=O)CC[C@H](NC(=O)CCCCCCCCCCCCCCCCCCC(=O)O)C(=O)O)C(=O)N[C@@H](C)C(=O)N[C@@H](CCC(N)=O)C(=O)N[C@@H](CCCNC(=N)N)C(=O)N[C@@H](C)C(=O)N[C@@H](Cc1ccccc1)C(=O)N[C@H](C(=O)N[C@@H](CCC(=O)O)C(=O)N[C@@H](Cc1c[nH]c2ccccc12)C(=O)N[C@@H](CC(C)C)C(=O)N[C@@H](CC(C)C)C(=O)N[C@@H](C)C(=O)N[C@@H](CCC(=O)O)C(=O)NCC(=O)N1CCC[C@H]1C(=O)N[C@@H](CO)C(=O)N[C@@H](CO)C(=O)NCC(=O)N[C@@H](C)C(=O)N1CCC[C@H]1C(=O)N1CCC[C@H]1C(=O)N1CCC[C@H]1C(=O)N[C@@H](CO)C(N)=O)C(C)C` [Compound 55] (H-Y[Aib]EGTFTSDYSIALDKK([AEEA-AEEA-γGlu-C20 diacid])AQRAFVEWLLAEGPSSGAPPPS-NH2), the EC50 on human GIP R (setting [4]) stood at 0.016 nM; at human GLP-1 R (setting [7]), 0.013 nM.

With `CC[C@H](C)[C@H](NC(=O)[C@H](CO)NC(=O)[C@H](Cc1ccc(O)cc1)NC(=O)[C@H](CC(=O)O)NC(=O)[C@H](CO)NC(=O)[C@@H](NC(=O)[C@H](Cc1ccccc1)NC(=O)[C@@H](NC(=O)CNC(=O)[C@H](CCC(=O)O)NC(=O)C(C)(C)NC(=O)[C@@H](N)Cc1ccc(O)cc1)[C@@H](C)O)[C@@H](C)O)C(=O)N[C@@H](C)C(=O)N[C@@H](CC(C)C)C(=O)N[C@@H](CC(=O)O)C(=O)N[C@@H](CCCCN)C(=O)N[C@@H](CCCCNC(=O)COCCOCCNC(=O)COCCOCCNC(=O)CC[C@H](NC(=O)CCCCCCCCCCCCCCCCCCC(=O)O)C(=O)O)C(=O)N[C@@H](C)C(=O)N[C@@H](CCC(N)=O)C(=O)N[C@@H](CCCNC(=N)N)C(=O)N[C@@H](C)C(=O)N[C@@H](Cc1ccccc1)C(=O)N[C@H](C(=O)N[C@@H](CCC(=O)O)C(=O)N[C@@H](Cc1c[nH]c2ccccc12)C(=O)N[C@@H](CC(C)C)C(=O)N[C@@H](CC(C)C)C(=O)N[C@@H](C)C(=O)N[C@@H](CCC(=O)O)C(=O)N1CCC[C@H]1C(=O)N[C@@H](CO)C(=O)N[C@@H](CO)C(=O)NCC(=O)N[C@@H](C)C(=O)N1CCC[C@H]1C(=O)N1CCC[C@H]1C(=O)N1CCC[C@H]1C(=O)N[C@@H](CO)C(N)=O)C(C)C` [Compound 56] (H-Y[Aib]EGTFTSDYSIALDKK([AEEA-AEEA-γGlu-C20 diacid])AQRAFVEWLLAEPSSGAPPPS-NH2), the EC50 at human GIP R (setting [4]) is 0.025 nM; on human GLP-1 R (setting [7]), 0.033 nM.
